Measured values published in patent US11638765B2, “Double-labeled probe for molecular imaging and use thereof” (Deutsches Krebsforschungszentrum, priority 2017, dated 2023).

Assays:
PSMA+ LNCaP cells = experiment: Internalization experiments (surface-bound and internalized fractions); assay type: cell-based; settings: 30 nM radiolabeled compound, 45 min
Experimental: (§1) PSMA^+ LNCaP cells (ATCC CRL-1740) were cultured in RPMI medium supplemented with 10% fetal calf serum and 2 mmol/L L-glutamine (all from PAA). Cells were grown at 37° C. in humidified air with 5% CO2 and were harvested using trypsin-ethylenediaminetetraacetic acid (trypsin-EDTA; 0.25% trypsin, 0.02% EDTA, Invitrogen).
For internalization experiments, 10^5 cells per well were seeded in poly-L-lysine coated 24-well cell culture plates 24 h before incubation. After washing, the cells were incubated with 30 nM of the radiolabeled compound for 45 min at 37° C. and at 4° C., respectively. Cellular uptake was terminated by washing 3 times with 1 mL of ice-cold PBS. To remove surface-bound radioactivity, cells were incubated twice with 0.5 mL glycine-HCl in PBS (50 mM, pH=2.8) for 5 min. The cells were washed with 1 mL of ice-cold PBS and lysed using 0.3 N NaOH (0.5 mL). The surface-bound and the internalized fractions were measured in a gamma counter. The cell uptake was calculated as percent of the initially added radioactivity bound to 10^5 cells [% ID/10^5 cells].

PSMA (PSMA+ LNCaP cells) = biological target: T1, PSMA (PSMA+ LNCaP cells) (Homo sapiens, UniProt Q04609); experiment: Competitive cell binding assay against 68Ga-labeled PSMA-10 radioligand; settings: radioligand [68Ga]Ga-PSMA-10 0.75 nM, metal-free ligand
T1 construct: host or cells: LNCaP cells
T1 sequence (Q04609 whole entry): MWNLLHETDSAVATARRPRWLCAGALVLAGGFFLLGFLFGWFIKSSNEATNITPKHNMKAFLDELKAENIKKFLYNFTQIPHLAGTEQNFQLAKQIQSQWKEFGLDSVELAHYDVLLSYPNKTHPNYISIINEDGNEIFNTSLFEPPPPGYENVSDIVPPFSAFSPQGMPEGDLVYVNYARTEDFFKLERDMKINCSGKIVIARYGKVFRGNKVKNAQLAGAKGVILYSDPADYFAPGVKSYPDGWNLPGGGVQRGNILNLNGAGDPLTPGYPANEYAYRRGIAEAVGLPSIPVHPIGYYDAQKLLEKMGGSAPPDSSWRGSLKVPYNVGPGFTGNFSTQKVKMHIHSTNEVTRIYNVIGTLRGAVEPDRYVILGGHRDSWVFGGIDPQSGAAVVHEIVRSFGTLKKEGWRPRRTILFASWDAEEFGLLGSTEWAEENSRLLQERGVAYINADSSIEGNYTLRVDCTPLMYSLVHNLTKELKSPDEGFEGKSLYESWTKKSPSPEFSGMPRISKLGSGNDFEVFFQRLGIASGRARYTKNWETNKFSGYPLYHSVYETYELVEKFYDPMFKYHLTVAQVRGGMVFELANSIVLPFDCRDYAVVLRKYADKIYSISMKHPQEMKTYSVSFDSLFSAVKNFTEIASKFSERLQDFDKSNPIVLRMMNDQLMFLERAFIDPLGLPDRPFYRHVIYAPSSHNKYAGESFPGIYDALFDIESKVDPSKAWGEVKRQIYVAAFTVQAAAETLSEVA
Experimental: as §1
The competitive cell binding assay and internalization experiments were performed as described previously (4). Briefly, the cells (10^5 per well) were incubated with a 0.75 nM solution of ^68Ga-labeled radioligand [Glu-urea-Lys(Ahx)]2-HBED-CC (PSMA-10, precursor ordered from ABX, Radeberg, Germany) in the presence of 12 different concentrations of analyte (0-5000 nM, 100 μL/well). After incubation, the mixture was removed and the wells were washed 3 times with PBS using a multiscreen vacuum manifold (Millipore, Billerica, Mass.). Cell-bound radioactivity was measured using a gamma counter (Packard Cobra II, GMI, Minn., USA). The 50% inhibitory concentration (IC50) values were calculated by fitting the data using a nonlinear regression algorithm (GraphPad Software).

PSMA = PSMA (Homo sapiens, UniProt Q04609); settings: radioligand of the competitive binding assay; cited from earlier work
PSMA, sequence (Q04609 whole entry, species assumed): as the sequence (Q04609 whole entry) above

[1] = Biodistribution (organ distribution) of 68Ga-labeled compounds in LNCaP-tumor bearing mice; assay type: in vivo, BALB/c nu/nu mice; settings: 1 h p.i.
Experimental: The precursor peptides [1 nmol in HEPES buffer (580 mg/ml), 40 μL] were added to 40 μL [^68Ga]Ga^3+ eluate (˜40 MBq). The pH was adjusted to 3.8 using 30% NaOH and 10% NaOH, respectively. The reaction mixture was incubated at 98° C. for 10 minutes. The radiochemical yield (RCY) was determined by HPLC.
For the experimental tumor models 5×10^6 cells of LNCaP (in 50% Matrigel; Becton Dickinson, Heidelberg, Germany) were subcutaneously inoculated into the right trunk of 7- to 8-week-old male BALB/c nu/nu mice (Charles River). The tumors were allowed to grow until approximately 1 cm^3 in size. The ^68Ga-labeled compounds were injected into a tail vein (1-2 MBq; 60 pmol). At 1 h after injection the animals were sacrificed. Organs of interest were dissected, blotted dry, and weighed. The radioactivity was measured using a gamma counter and calculated as % ID/g. All animal experiments complied with the current laws of the Federal Republic of Germany.

CC1(C)C(/C=C/C2=C(Oc3ccc(S(=O)(=O)O)cc3)C(=C/C=C3/N(CCCCS(=O)(=O)O)c4ccc(S(=O)(=O)O)cc4C3(C)C)/CCC2)=[N+](CCCCCC(=O)NCCCC[C@H](NC(=O)CN2CCN(CC(=O)O)CCN(CC(=O)O)CCN(CC(=O)O)CC2)C(=O)NC[C@H]2CC[C@H](C(=O)N[C@@H](Cc3ccc4ccccc4c3)C(=O)NCCCC[C@H](NC(=O)N[C@@H](CCC(=O)O)C(=O)O)C(=O)O)CC2)c2ccc(S(=O)(=O)[O-])cc21 (stereo in doubt) [Glu-urea-Lys-2-Nal-Chx-Lys(IRDye800CW)-DOTA]
Specific cell surface bound (PSMA+ LNCaP cells): 25.51 ± 9.73 % ID/10^5 cells | Specific internalized (PSMA+ LNCaP cells): 27.64 ± 12.80 % ID/10^5 cells | IC50 (PSMA (PSMA+ LNCaP cells)): 15.9 ± 5.46 nM

[Glu-urea-Lys(Ahx)]2-HBED-CC [[^68Ga]Ga -PSMA-10]
Kd (PSMA): 2.1 nM

^68Ga-Glu-urea-Lys-2-Nal-Chx-Lys(IRDye800CW)-DOTA
Kidney uptake in comparison to the reference ([1]; in words): significantly reduced | Tumor uptake in comparison to the reference ([1]; in words): comparable | Organ distribution, Blood (Mean) ([1]; tail vein, 60 pmol, n = 3): 1.14 % ID/g | Organ distribution, Brain (Mean) ([1]; tail vein, 60 pmol, n = 3): 0.07 % ID/g | Organ distribution, Heart (Mean) ([1]; tail vein, 60 pmol, n = 3): 0.51 % ID/g | Organ distribution, Intestine (Mean) ([1]; tail vein, 60 pmol, n = 3): 0.43 % ID/g | Organ distribution, Kidney (Mean) ([1]; tail vein, 60 pmol, n = 3): 65.64 % ID/g | Organ distribution, Liver (Mean) ([1]; tail vein, 60 pmol, n = 3): 0.95 % ID/g | Organ distribution, Lung (Mean) ([1]; tail vein, 60 pmol, n = 3): 1.47 % ID/g | Organ distribution, Muscle (Mean) ([1]; tail vein, 60 pmol, n = 3): 0.34 % ID/g | Organ distribution, Spleen (Mean) ([1]; tail vein, 60 pmol, n = 3): 2.82 % ID/g | Organ distribution, Tumor (Mean) ([1]; LNCaP tumor, tail vein, 60 pmol, n = 3): 4.13 % ID/g
